The record followed here is paper PMC9158366, “The inhibition of tamoxifen on UGT2B gene expression and enzyme activity in rat liver contribute to the estrogen homeostasis dysregulation” (BMC Pharmacology & Toxicology, 2022).

The target of this test is T1, UGT2B7 (Homo sapiens, UniProt P16662).
T1 sequence (P16662 24-529): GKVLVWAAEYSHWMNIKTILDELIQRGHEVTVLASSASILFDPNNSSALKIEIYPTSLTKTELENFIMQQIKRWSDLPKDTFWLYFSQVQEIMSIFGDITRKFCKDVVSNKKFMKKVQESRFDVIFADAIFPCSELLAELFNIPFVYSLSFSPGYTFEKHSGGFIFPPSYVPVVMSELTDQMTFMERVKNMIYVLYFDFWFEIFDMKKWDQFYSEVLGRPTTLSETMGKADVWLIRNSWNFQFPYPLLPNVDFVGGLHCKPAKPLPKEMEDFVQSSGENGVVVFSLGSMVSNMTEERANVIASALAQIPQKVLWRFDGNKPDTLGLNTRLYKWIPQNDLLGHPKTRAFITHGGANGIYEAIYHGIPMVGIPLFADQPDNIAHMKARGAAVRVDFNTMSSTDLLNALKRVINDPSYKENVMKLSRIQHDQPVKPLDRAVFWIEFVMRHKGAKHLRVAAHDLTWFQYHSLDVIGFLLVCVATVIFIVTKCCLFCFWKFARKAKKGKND
In words: inhibition of naloxone glucuronidation in human liver microsomes, HPLC. The test is classed as biochemical. Background: Microsomes from liver hold many membrane-bound enzymes, among them those of drug oxidation.

The Ki is a measure of affinity in units of concentration, obtained from inhibition or displacement. A higher Ki goes with lower affinity. For the compound `CC/C(=C(\c1ccccc1)c1ccc(OCCN(C)C)cc1)c1ccccc1` [tamoxifen], affinity was put at a Ki of 37.7 µM.
